Measurements published in PubChem BioAssay (NCI).
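Method: 48-hour compound exposure of cells in 96-well plates, five concentrations, linear interpolation of endpoints. GI50: concentration for 50% inhibition of growth. At the TGI there is no net growth.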

Legend:
Test in all cases: growth of human tumour cells (NCI), 48 h
[1] = test system: A549 NSCLC
[2] = test system: ACHN renal
[3] = test system: CAKI-1 renal
[4] = test system: CCRF-CEM leukemia
[5] = test system: COLO 205 colon
[6] = test system: DU-145 prostate
[7] = test system: EKVX NSCLC
[8] = test system: HCC-2998 colon
[9] = test system: HCT-116 colon
[10] = test system: HCT-15 colon
[11] = test system: HL-60(TB) leukemia
[12] = test system: HOP-62 NSCLC
[13] = test system: HS 578T breast
[14] = test system: HT29 colon
[15] = test system: IGROV1 ovarian
[16] = test system: K-562 leukemia
[17] = test system: KM12 colon
[18] = test system: LOX IMVI melanoma
[19] = test system: M14 melanoma
[20] = test system: MALME-3M melanoma
[21] = test system: MCF7 breast
[22] = test system: MDA-MB-231 breast
[23] = test system: MDA-MB-435
[24] = test system: MDA-N
[25] = test system: MOLT-4 leukemia
[26] = test system: NCI-H226 lung
[27] = test system: NCI-H23 lung
[28] = test system: NCI-H460 lung
[29] = test system: NCI-H522 lung
[30] = test system: NCI/ADR-RES ovarian
[31] = test system: OVCAR-3 ovarian
[32] = test system: OVCAR-5 ovarian
[33] = test system: OVCAR-8 ovarian
[34] = test system: PC-3 prostate
[35] = test system: RPMI-8226 leukemia
[36] = test system: RXF 393 renal
[37] = test system: SF-268 CNS
[38] = test system: SF-295 CNS
[39] = test system: SF-539 CNS
[40] = test system: SK-MEL-28 melanoma
[41] = test system: SK-MEL-5 melanoma
[42] = test system: SN12C renal
[43] = test system: SNB-19 CNS
[44] = test system: SNB-75 CNS
[45] = test system: SR leukemia
[46] = test system: SW-620 colon
[47] = test system: TK-10 renal
[48] = test system: U251 CNS
[49] = test system: UACC-257 melanoma
[50] = test system: UO-31 renal
[51] = test system: 786-0 renal
[52] = test system: A498 renal
[53] = test system: BT-549 breast
[54] = test system: HOP-92 NSCLC
[55] = test system: OVCAR-4 ovarian
[56] = test system: SK-MEL-2 melanoma
[57] = test system: SK-OV-3 ovarian
[58] = test system: T-47D breast
[59] = test system: UACC-62 melanoma

COc1ccc(NS(=O)c2ccc(-c3ccccc3)cc2)cc1 (stereo unspecified)
TGI [1]: > 100 µM | TGI [2]: > 100 µM | TGI [3]: > 100 µM | TGI [4]: > 100 µM | TGI [5]: > 100 µM | TGI [6]: > 100 µM | TGI [7]: > 100 µM | TGI [8]: > 100 µM | TGI [9]: > 100 µM | TGI [10]: > 100 µM | TGI [11]: > 100 µM | TGI [12]: > 100 µM | TGI [13]: 31.2 µM | TGI [14]: > 100 µM | TGI [15]: > 100 µM | TGI [16]: > 100 µM | TGI [17]: > 100 µM | TGI [18]: > 100 µM | TGI [19]: > 100 µM | TGI [20]: > 100 µM | TGI [21]: > 100 µM | TGI [22]: > 100 µM | TGI [23]: > 100 µM | TGI [24]: > 100 µM | TGI [25]: > 100 µM | TGI [26]: > 100 µM | TGI [27]: > 100 µM | TGI [28]: > 100 µM | TGI [29]: > 100 µM | TGI [30]: > 100 µM | TGI [31]: > 100 µM | TGI [32]: > 100 µM | TGI [33]: > 100 µM | TGI [34]: > 100 µM | TGI [35]: > 100 µM | TGI [36]: > 100 µM | TGI [37]: > 100 µM | TGI [38]: > 100 µM | TGI [39]: > 100 µM | TGI [40]: > 100 µM | TGI [41]: > 100 µM | TGI [42]: > 100 µM | TGI [43]: > 100 µM | TGI [44]: 62.5 µM | TGI [45]: > 100 µM | TGI [46]: > 100 µM | TGI [47]: > 100 µM | TGI [48]: > 100 µM | TGI [49]: > 100 µM | TGI [50]: > 100 µM

O=C(/C=C/c1ccccc1)c1c[nH]c2ccccc2c1=O
GI50 [51]: 4.01 µM | TGI [51]: 17.2 µM | GI50 [52]: 2.3 µM | TGI [52]: 10.3 µM | GI50 [1]: 2.35 µM | TGI [1]: 10.3 µM | GI50 [2]: 3.01 µM | TGI [2]: 11.7 µM | GI50 [53]: 4.84 µM | TGI [53]: 17.8 µM | GI50 [3]: 1.97 µM | TGI [3]: 6.22 µM | GI50 [4]: 2.88 µM | TGI [4]: 9.97 µM | GI50 [5]: 2.39 µM | TGI [5]: 4.68 µM | GI50 [6]: 1.57 µM | TGI [6]: 6.34 µM | GI50 [7]: 3.95 µM | TGI [7]: 20.1 µM | GI50 [8]: 2.85 µM | TGI [8]: 9.48 µM | GI50 [9]: 3.11 µM | TGI [9]: 12.1 µM | GI50 [10]: 2.08 µM | TGI [10]: 13.2 µM | GI50 [11]: 2.81 µM | TGI [11]: 10.6 µM | GI50 [12]: 3.5 µM | TGI [12]: 12.2 µM | GI50 [54]: 3.9 µM | TGI [54]: 13 µM | GI50 [13]: 2.32 µM | TGI [13]: 6.34 µM | GI50 [14]: 3.15 µM | TGI [14]: 10.6 µM | GI50 [15]: 3.67 µM | TGI [15]: 16.4 µM | GI50 [16]: 2.74 µM | TGI [16]: 54.8 µM | GI50 [17]: 3.37 µM | TGI [17]: 11 µM | GI50 [18]: 2.88 µM | TGI [18]: 12 µM | GI50 [19]: 3.49 µM | TGI [19]: 11.6 µM | GI50 [20]: 8.81 µM | TGI [20]: 27.1 µM | GI50 [21]: 2.33 µM | TGI [21]: 12.6 µM | GI50 [22]: 4.22 µM | TGI [22]: 18.7 µM | GI50 [23]: 3.17 µM | TGI [23]: 13.8 µM | GI50 [25]: 3.16 µM | TGI [25]: 20.8 µM | GI50 [26]: 4.81 µM | TGI [26]: 17.3 µM | GI50 [27]: 3.17 µM | TGI [27]: 15.2 µM | GI50 [28]: 2.06 µM | TGI [28]: 5.09 µM | GI50 [29]: 1.88 µM | TGI [29]: 4.85 µM | GI50 [30]: 2.93 µM | TGI [30]: 13 µM | GI50 [31]: 2.03 µM | TGI [31]: 4.37 µM | GI50 [55]: 4.88 µM | TGI [55]: 23.5 µM | GI50 [32]: 3.87 µM | TGI [32]: 17 µM | GI50 [33]: 2.23 µM | TGI [33]: 6.82 µM | GI50 [34]: 5.63 µM | TGI [34]: 33.1 µM | GI50 [35]: 2.23 µM | TGI [35]: 7.62 µM | GI50 [36]: 3.05 µM | TGI [36]: 11.5 µM | GI50 [37]: 2.81 µM | TGI [37]: 10.3 µM | GI50 [38]: 2.31 µM | TGI [38]: 7.18 µM | GI50 [39]: 2.55 µM | TGI [39]: 8.81 µM | GI50 [56]: 2.42 µM | TGI [56]: 5.72 µM | GI50 [40]: 6.53 µM | TGI [40]: 19.4 µM | GI50 [41]: 4.8 µM | TGI [41]: 17 µM | GI50 [57]: 2.53 µM | TGI [57]: 6.82 µM | GI50 [42]: 3.54 µM | TGI [42]: 15.5 µM | GI50 [43]: 4.68 µM | TGI [43]: 20.5 µM | GI50 [44]: 3.1 µM | TGI [44]: 12 µM | GI50 [45]: 2.62 µM | TGI [45]: > 100 µM | GI50 [46]: 2.76 µM | TGI [46]: 10 µM | GI50 [58]: 3.05 µM | TGI [58]: 17.1 µM | GI50 [47]: 2.08 µM | TGI [47]: 5.37 µM | GI50 [48]: 2.29 µM | TGI [48]: 11 µM | GI50 [49]: 3.56 µM | TGI [49]: 15.1 µM | GI50 [59]: 5.09 µM | TGI [59]: 18.2 µM | GI50 [50]: 3.26 µM | TGI [50]: 14.7 µM
